Data taken from patent US20240148821A1, “PHARMACEUTICAL USE OF CYCLIC PEPTIDE COMPOUND” (CHUGAI SEIYAKU KABUSHIKI KAISHA, priority 2021, published 2024).
Numbered stars: 1 amine (or outer) side, 2 acyl side, 3 side chain; on linkers, the order of the positions; unused ones are H or OH. Bridge positions count the residues as written; N and C are the ends. Square brackets hold non-standard residues; d marks the D form. Peptide text beside a SMILES is read from it. * marks the point of attachment. hPhe(3-Cl-4-CF3) = N[C@@H](CCc1ccc(C(F)(F)F)c(Cl)c1)C(=O)O; NMePhe(3-Cl) = CN[C@@H](Cc1cccc(Cl)c1)C(=O)O; NMePhe(4-Cl) = CN[C@@H](Cc1ccc(Cl)cc1)C(=O)O; NMePhe(2-OMe) = CN[C@@H](Cc1ccccc1OC)C(=O)O; NMePhe(4-Me) = CN[C@@H](Cc1ccc(C)cc1)C(=O)O; X64 = O=C([C@H](Cc1ccc(Br)s1)N[*:1])[*:2]; NMeGly(cPent) = CN[C@H](C(=O)O)C1CCCC1; Phe(3-I) = N[C@@H](Cc1cccc(I)c1)C(=O)O; NMe4Pal = CN[C@@H](Cc1ccncc1)C(=O)O; NMeCha = CN[C@@H](CC1CCCCC1)C(=O)O; NMeGly(cPr) = CN[C@H](C(=O)O)C1CC1; NMehLeu = CN[C@@H](CCC(C)C)C(=O)O; NMeAhp(2) = CCCCC[C@H](NC)C(=O)O; NMeI = CC[C@H](C)[C@H](NC)C(=O)O; NMeD = CN[C@@H](CC(=O)O)C(=O)O; NMeL = CN[C@@H](CC(C)C)C(=O)O; NMeV = CN[C@H](C(=O)O)C(C)C; d(β3hA) = C[C@@H](N)CC(=O)O; dNMeS = CN[C@H](CO)C(=O)O; NMeA = CN[C@@H](C)C(=O)O; NMeAib = CNC(C)(C)C(=O)O; Nle = CCCC[C@H](N)C(=O)O; Piperidide = C1CCN(*)CC1; Ac5c = NC1(C(=O)O)CCCC1; Aze = O=C(O)[C@@H]1CCN1; Isopentyl = CC(C)CC*; Sar = CNCC(=O)O

The molecules below were run on Human pancreatic cancer cell line AsPC-1 (G12D mutation Kras) (assay: AsPC-1 cell growth inhibition (AsPC-1 CGI)). Conditions: read-out: AsPC-1 cell growth inhibition, 50% growth inhibitory concentration (IC50 value); 96 hours, CellTiter-Glo, values classified in ranges.
Format: cell-based
Protocol: Test compounds were serially dilated with dimethyl sulfoxide, and 200 nL was then dispensed to a U-bottom 96-well plate using Labcyte Echo. […] The cell suspension was dispensed to a. plate containing a test compound at 100 μL per well and incubated at 37° C. in a 5% carbon dioxide gas incubator. 96 hours later, 80 μL of CellTiter-Glo (Promega) was added to each well and fluorescence was measured.

Structure (SMILES) | IC50 [nM]
CC[C@H](C)[C@@H]1NC(=O)[C@H](CC(C)C)N(C)C(=O)C[C@@H](C(=O)N2CCCCC2)N(C)C(=O)[C@H](C(C)C)N(C)C(=O)C2(CCCC2)NC(=O)[C@@H](C)NC(=O)[C@H](CCc2ccc(C(F)(F)F)c(Cl)c2)NC(=O)CN(C)C(=O)[C@H](CC2CCCCC2)N(C)C(=O)[C@@H]2CCN2C(=O)[C@H](C)N(C)C1=O [Compound 1314] ([NMeL]I[NMeA][Aze][NMeCha][Sar][hPhe(3-Cl-4-CF3)][dA][Ac5c][NMeV][NMeD]-Piperidide; lactam N-11) | > 500
CC[C@H](C)[C@@H]1NC(=O)[C@H](CC(C)C)N(C)C(=O)C[C@@H](C(=O)N2CCCCC2)N(C)C(=O)[C@H](C2CCCC2)N(C)C(=O)C2(CCCC2)NC(=O)[C@@H](COCCC(C)C)N(C)C(=O)[C@H](CCc2ccc(C(F)(F)F)c(Cl)c2)NC(=O)CN(C)C(=O)[C@H](CC2CCCCC2)N(C)C(=O)[C@@H]2CCN2C(=O)[C@H](C)N(C)C1=O [Compound 1443] ([NMeL]I[NMeA][Aze][NMeCha][Sar][hPhe(3-Cl-4-CF3)][dNMeS](Isopentyl)[Ac5c][NMeGly(cPent)][NMeD]-Piperidide; lactam N-11) | > 500
CCCC[C@@H]1NC(=O)[C@H](Cc2ccc(Br)s2)NC(=O)CN(C)C(=O)[C@H](Cc2ccc(Cl)cc2)N(C)C(=O)CN(C)C(=O)CN(C)C(=O)[C@H]([C@@H](C)CC)NC(=O)[C@H](CC(C)C)N(C)C(=O)C[C@@H](C(=O)N2CCCCC2)N(C)C(=O)[C@H](CC(C)C)NC(=O)C(C)(C)N(C)C1=O [Compound 1216] ([NMeL]I[Sar][Sar][NMePhe(4-Cl)][Sar][X64][Nle][NMeAib]L[NMeD]-Piperidide; lactam N-11) | > 500
CCCC[C@@H]1NC(=O)[C@H](Cc2cccc(I)c2)NC(=O)CN(C)C(=O)[C@H](Cc2ccc(Cl)cc2)N(C)C(=O)CN(C)C(=O)CN(C)C(=O)[C@H]([C@@H](C)CC)NC(=O)[C@H](CC(C)C)N(C)C(=O)C[C@@H](C(=O)N2CCCCC2)N(C)C(=O)[C@H](CC(C)C)NC(=O)[C@H](Cc2ccccc2OC)N(C)C1=O [Compound 259] ([NMeL]I[Sar][Sar][NMePhe(4-Cl)][Sar][Phe(3-I)][Nle][NMePhe(2-OMe)]L[NMeD]-Piperidide; lactam N-11) | > 500
CCCCC[C@H]1C(=O)N(C)[C@H](C(=O)N2CCCCC2)CC(=O)N(C)[C@@H](CC(C)C)C(=O)N[C@@H]([C@@H](C)CC)C(=O)N(C)CC(=O)N(C)CC(=O)N(C)[C@@H](CC2CCCCC2)C(=O)N(C)CC(=O)N[C@@H](CCc2ccc(C(F)(F)F)c(Cl)c2)C(=O)N2CCC[C@H]2C(=O)NC2(CCCC2)C(=O)N1C [Compound 1719] ([NMeL]I[Sar][Sar][NMeCha][Sar][hPhe(3-Cl-4-CF3)]P[Ac5c][NMeAhp(2)][NMeD]-Piperidide; lactam N-11) | > 500
CC[C@H](C)[C@@H]1NC(=O)[C@H](CCC(C)C)N(C)C(=O)C[C@@H](C(=O)N(C)C)N(C)C(=O)[C@H](C2CCCC2)N(C)C(=O)C2(CCCC2)NC(=O)[C@@H]2CCCN2C(=O)[C@H](CCc2ccc(C(F)(F)F)c(Cl)c2)NC(=O)CN(C)C(=O)[C@H](Cc2ccc(C)cc2)N(C)C(=O)[C@@H]2CCN2C(=O)[C@H](C)NC1=O [Compound 303] ([NMehLeu]IA[Aze][NMePhe(4-Me)][Sar][hPhe(3-Cl-4-CF3)]P[Ac5c][NMeGly(cPent)][NMeD]-NMe2; lactam N-11) | ≤ 20
CC[C@H](C)[C@@H]1NC(=O)[C@H](CC(C)C)N(C)C(=O)C[C@@H](C(=O)N(C)C)N(C)C(=O)[C@H]([C@@H](C)CC)N(C)C(=O)[C@H](C(C)C)NC(=O)[C@H](Cc2ccncc2)N(C)C(=O)[C@H](CCc2ccc(C(F)(F)F)c(Cl)c2)NC(=O)CN(C)C(=O)[C@H](Cc2ccc(C)cc2)N(C)C(=O)[C@@H]2CCN2C(=O)[C@H](C)N(C)C1=O [Compound 1897] ([NMeL]I[NMeA][Aze][NMePhe(4-Me)][Sar][hPhe(3-Cl-4-CF3)][NMe4Pal]V[NMeI][NMeD]-NMe2; lactam N-11) | > 500
CC[C@H](C)[C@@H]1NC(=O)[C@H](CC(C)C)N(C)C(=O)C[C@@H](C(=O)N2CCCCC2)N(C)C(=O)[C@H](C2CC2)N(C)C(=O)C2(CCCC2)NC(=O)[C@@H]2CCCN2C(=O)[C@H](CCc2ccc(C(F)(F)F)c(Cl)c2)NC(=O)CN(C)C(=O)[C@H](CC2CCCCC2)N(C)C(=O)CN(C)C(=O)CN(C)C1=O [Compound 197] ([NMeL]I[Sar][Sar][NMeCha][Sar][hPhe(3-Cl-4-CF3)]P[Ac5c][NMeGly(cPr)][NMeD]-Piperidide; lactam N-11) | > 500
CC[C@H](C)[C@@H]1NC(=O)[C@H](C)N(C)C(=O)C[C@@H](C)NC(=O)[C@H](C2CCCC2)N(C)C(=O)C2(CCCC2)NC(=O)[C@@H]2CCCN2C(=O)[C@H](CCc2ccc(C(F)(F)F)c(Cl)c2)NC(=O)CN(C)C(=O)[C@H](Cc2cccc(Cl)c2)N(C)C(=O)[C@@H]2CCCN2C(=O)CN(C)C1=O [Compound 186] (cyclo([Ac5c][NMeGly(cPent)][d(β3hA)][NMeA]I[Sar]P[NMePhe(3-Cl)][Sar][hPhe(3-Cl-4-CF3)]P)) | > 500
